# Tests used:
# Assay in all cases: relative viability (nuclei count vs DMSO), 5 days (fraction); higher = more cells survive
# [1] = compound: Cn1cnc2c(F)c(Nc3ccc(Br)cc3Cl)c(C(=O)NOCCO)cc21 [Selumetinib] + NC(=O)Nc1cc(-c2cccc(F)c2)sc1C(=O)N[C@H]1CCCNC1 [AZD7762] (partner 0.2 µM)
# Method in brief: (§1)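 After 5 days of treatment, lung cancer cells in 1536-well plates were fixed and stained in a single step (final 0.05% Triton X-100, 1% formaldehyde, 1 ug/ml Hoechst) and their nuclei counted on 4× images. Treatment had been applied by pin tool the day after seeding as one drug alone or as a fixed anchor-drug dose with five library-drug doses (not always all listed) in √10 steps. Relative viability is the nuclei count of treated wells divided by that of vehicle wells, and values are medians of duplicate plates.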
# [2] = compound: CC1(C)CCC(CN2CCN(c3ccc(C(=O)NS(=O)(=O)c4ccc(NCC5CCOCC5)c([N+](=O)[O-])c4)c(Oc4cnc5[nH]ccc5c4)c3)CC2)=C(c2ccc(Cl)cc2)C1 [Venetoclax] + CCNC(=O)c1noc(-c2cc(C(C)C)c(O)cc2O)c1-c1ccc(CN2CCOCC2)cc1 [Luminespib] (partner 0.01 µM)
# Method in brief: as §1
# [3] = compound: Cn1cnc2c(F)c(Nc3ccc(Br)cc3Cl)c(C(=O)NOCCO)cc21 [Selumetinib] + COc1cccc2cc(-c3nc([C@H]4CC[C@H](C(=O)O)CC4)n4ncnc(N)c34)[nH]c12 [OSI-027] (partner 0.5 µM)
# Method in brief: as §1
# [4] = compound: CC1(C)CCC(CN2CCN(c3ccc(C(=O)NS(=O)(=O)c4ccc(NCC5CCOCC5)c([N+](=O)[O-])c4)c(Oc4cnc5[nH]ccc5c4)c3)CC2)=C(c2ccc(Cl)cc2)C1 [Venetoclax] + CS(=O)(=O)N1CCN(Cc2cc3nc(-c4cccc5[nH]ncc45)nc(N4CCOCC4)c3s2)CC1 [Pictilisib] (partner 1 µM)
# Method in brief: as §1
Cell Line,relative viability ([1]; first compound 0.02 µM),relative viability ([1]; first compound 0.06325 µM),relative viability ([1]; first compound 0.2 µM),relative viability ([1]; first compound 0.6325 µM),relative viability ([2]; first compound 0.01 µM),relative viability ([2]; first compound 0.03162 µM),relative viability ([2]; first compound 0.1 µM),relative viability ([2]; first compound 0.3162 µM),relative viability ([2]; first compound 1 µM),relative viability ([3]; first compound 0.02 µM),relative viability ([3]; first compound 0.06325 µM),relative viability ([3]; first compound 0.2 µM),relative viability ([3]; first compound 0.6325 µM),relative viability ([4]; first compound 0.01 µM),relative viability ([4]; first compound 0.03162 µM),relative viability ([4]; first compound 0.1 µM),relative viability ([4]; first compound 0.3162 µM),relative viability ([4]; first compound 1 µM)
201T,0.602,0.615,0.554,0.6,1.01,1.08,1.04,0.996,1.05,0.658,0.674,0.628,0.691,0.635,0.653,0.659,0.73,0.683
A549,,,,,,,,,,,,,,0.48,0.542,0.564,0.493,0.482
A-427,0.7,0.613,0.628,0.618,0.903,0.847,0.889,1.07,0.891,0.482,0.327,0.321,0.288,0.651,0.809,0.588,0.834,0.705
ABC-1,0.871,0.591,0.66,0.578,0.553,0.53,0.689,0.431,0.912,0.373,0.403,0.367,0.345,0.786,0.778,0.759,0.71,0.699
BEN,0.587,0.624,0.634,0.736,0.343,0.48,0.401,0.192,0.513,0.276,0.315,0.274,0.295,0.738,0.637,0.518,0.557,0.546
CAL-12T,0.64,0.574,0.566,0.568,0.353,0.254,0.375,0.24,0.412,0.636,0.492,0.516,0.395,0.36,0.609,0.489,0.419,0.396
COR-L23,,,,,0.469,0.669,0.728,0.71,0.651,0.798,0.782,0.753,0.565,0.676,0.82,0.732,0.825,0.676
COR-L 105,,,,,1.03,0.61,0.522,0.712,0.625,0.612,0.46,0.467,0.343,0.409,0.526,0.367,0.406,0.468
Calu-6,,,,,,,,,,,,,,0.801,0.89,0.879,0.857,0.882
ChaGo-K-1,0.865,0.845,0.905,0.899,0.459,0.709,0.637,0.628,0.59,0.562,0.504,0.524,0.528,0.91,0.998,,0.825,0.727
EBC-1,,,,,,,,,,,,,,0.436,0.59,0.348,0.339,0.406
EKVX,0.713,0.594,0.613,0.502,0.87,0.89,0.923,0.833,0.884,0.654,0.645,0.606,0.469,0.451,0.432,0.423,0.469,0.395
EMC-BAC-2,1.16,1.11,0.913,1.08,1.09,1.16,1.23,1.21,1.1,0.42,0.447,0.511,0.483,0.459,0.56,0.452,0.544,0.535
EPLC-272H,0.24,0.19,0.281,0.476,0.64,0.368,0.212,0.171,0.367,0.284,0.259,0.236,0.183,,0.3,0.327,0.403,0.33
H3255,0.827,0.945,0.821,0.935,0.915,0.993,0.846,0.947,0.822,0.511,0.661,0.582,0.593,0.47,0.527,0.457,0.486,0.482
HARA,0.38,0.34,0.341,0.152,0.814,0.657,0.751,0.913,0.823,0.481,0.443,0.327,0.263,0.55,0.386,0.396,0.451,0.324
HCC-15,0.996,0.808,1.01,0.631,0.479,0.318,0.308,0.316,0.181,0.522,0.344,0.256,0.19,0.652,0.804,0.629,0.706,0.701
HCC-44,1.07,1.08,1.02,1.16,1.05,0.946,1.13,1.07,1,0.482,0.388,0.35,0.368,0.63,0.595,0.596,0.578,0.608
HCC-78,0.576,0.581,0.526,0.477,,,,,,0.346,0.397,0.396,0.385,0.179,0.244,0.187,0.206,0.238
HCC-366,0.27,0.324,0.253,0.166,,,,,,0.911,0.756,0.72,0.422,0.193,0.154,0.0731,0.184,0.138
HCC-827,0.2,0.195,0.194,0.209,0.657,0.641,0.237,0.509,0.694,0.782,0.751,0.62,0.708,1.01,1.31,0.912,0.929,1.02
HOP-62,0.591,0.542,0.5,0.241,0.945,0.892,0.926,0.8,0.842,0.887,0.751,0.818,0.5,0.725,1.04,0.493,0.904,0.634

Cell Line,relative viability ([1]; first compound 0.02 µM),relative viability ([1]; first compound 0.06325 µM),relative viability ([1]; first compound 0.2 µM),relative viability ([1]; first compound 0.6325 µM),relative viability ([2]; first compound 0.01 µM),relative viability ([2]; first compound 0.03162 µM),relative viability ([2]; first compound 0.1 µM),relative viability ([2]; first compound 0.3162 µM),relative viability ([2]; first compound 1 µM),relative viability ([3]; first compound 0.02 µM),relative viability ([3]; first compound 0.06325 µM),relative viability ([3]; first compound 0.2 µM),relative viability ([3]; first compound 0.6325 µM),relative viability ([4]; first compound 0.01 µM),relative viability ([4]; first compound 0.03162 µM),relative viability ([4]; first compound 0.1 µM),relative viability ([4]; first compound 0.3162 µM),relative viability ([4]; first compound 1 µM)
IA-LM,,,,,,,,,,,,,,0.354,0.322,0.275,0.317,0.337
LC-2-ad,0.687,0.633,0.572,0.477,1.05,0.962,0.981,1.01,0.898,0.828,0.662,0.631,0.726,0.45,0.401,0.387,0.516,0.555
LCLC-97TM1,0.244,0.179,0.219,0.136,0.709,0.397,0.717,0.727,0.771,0.487,0.386,0.325,0.249,,0.264,0.173,0.273,0.21
LCLC-103H,0.722,0.761,0.749,0.64,0.969,0.999,0.905,1.02,0.902,0.474,0.425,0.453,0.44,0.686,0.566,0.635,0.676,0.619
LK-2,0.474,0.425,0.502,0.243,0.186,0.204,0.185,0.157,0.182,0.2,0.229,0.203,0.189,0.799,0.636,0.512,0.54,0.613
NCI-H520,,,,,0.258,0.209,0.221,0.209,0.187,0.242,0.243,0.243,0.238,0.304,0.351,0.283,0.257,0.286
NCI-H522,0.728,0.781,0.842,0.828,1.14,1.21,1.04,,1.19,0.693,0.64,0.685,0.682,,,,,
NCI-H661,,,,,0.924,0.956,0.894,0.822,0.871,0.804,0.582,0.571,0.57,0.466,0.446,0.455,0.415,0.347
NCI-H1299,,,,,,,,,,,,,,0.869,0.874,0.637,0.769,0.67
NCI-H1563,,,,,0.548,0.546,0.499,0.447,0.577,0.721,0.713,0.779,0.783,0.881,0.653,0.648,0.642,0.698
NCI-H1623,,,,,0.545,0.502,0.566,0.6,0.464,0.39,0.383,0.343,0.359,,,,,
NCI-H1648,,0.737,0.733,0.67,,,,,,0.29,0.266,0.293,0.289,,,,,
NCI-H1650,,,,,0.196,0.202,0.2,0.189,0.207,0.677,0.405,0.637,0.548,0.531,0.713,,0.723,0.622
NCI-H1703,0.157,0.119,,0.134,,,,,,,,,,0.22,0.266,0.206,0.229,0.236
NCI-H2009,,,,,0.987,1.08,0.937,1,0.92,0.52,0.491,0.395,0.261,0.814,0.955,0.778,0.838,0.774
NCI-H2023,,,,,0.744,0.911,0.859,0.784,0.676,0.392,0.348,0.318,0.375,0.259,0.234,0.222,0.23,0.227
NCI-H2228,,,,,0.162,0.158,0.15,0.128,0.147,0.48,0.512,0.402,0.374,0.321,0.416,0.395,0.358,0.494
NCI-H2342,0.551,0.436,0.474,0.568,0.807,0.737,0.635,0.765,0.719,0.611,0.6,0.46,0.59,,,,,
SK-LU-1,,,,,0.188,0.21,0.197,0.198,0.197,0.339,0.331,0.357,0.208,0.558,0.634,0.524,0.592,0.511
SK-MES-1,,,,,0.82,0.789,0.806,0.822,0.728,0.603,0.598,0.587,0.447,0.345,0.398,0.315,0.334,0.349
SW 900,0.59,0.636,0.611,0.553,0.163,0.153,0.197,0.168,0.182,0.594,0.554,0.477,0.588,,,,,
SW 1573,,,,,0.234,0.152,0.153,0.385,0.215,0.515,0.449,0.464,0.458,0.471,0.615,0.435,0.459,0.487
